Data published in patent US20260199510A1, “AN ANTIBODY-DRUG CONJUGATE HAVING TWO OR MORE FUNCTIONAL SMALL MOLECULE COMPOUNDS FOR ENHANCED TREATMENT OF REFRACTORY DISEASES” (priority 2023, published 2026).

How the values were obtained:
Assay type in all cases: cell-based
PC3-4H7 cells = assay: MTT assay of B7H3-ADCs against PC3-4H7 tumor cells; settings: 6000 cells, 96 h incubation
Description: Parent cell line PC-3 from Nanjing Cobioer Biosciences Co., was introduced with plasmid coexpress both human PSMA and RFP-Neomycin fusion protein and plasmid coexpress human Steap1 and GFP-Blasticidin fusion protein. The high expression cells were selected by neomycin and Blasticidin, and the selected clone 4H7 having high expression of both PSMA and Steapl was verified by FACs and chosen for further use in vitro and in vivo study.
The cell lines used in the cytotoxicity assays were: C4-2B Cells which was obtained from ATCC through license agreement with MD Anderson Cancer Center, Houston, TX, USA. 22RV1, U87, NCI-N87, MKN-7, JIMT-1, SU86.86, SW1990, OVCAR-3, Calu-3, A431, AsPC-1, HCC827 and H1975 cells were purchased from ATCC, Nanjing Cobioer and The Cell Bank of Shanghai Institute of Biochemistry and Cell Biology, and the others. C4-2B and PC-3-4H7 are both Steap1 and PSMA antigen high express cells, but medium expressed of both B7H3 and DLL3 antigens. 22RV1 is low express cells for Steapl, PSMA, B7H3 and DLL3 antigens. U87 is glioblastoma (GBM) cells, NCI-N87 and MKN-7 cell line are stable models of the gastric epithelium. […] After it was shaken for 15 min, the absorbance was measured at 490 nm and 570 nm with a reference filter of 620 nm. The inhibition % was calculated according to the following equation: inhibition % =[1-(assay-blank)/(control-blank)]x 100.

SU86.86 cells = assay: MTT assay of BsHer2-ADCs against SU86.86 cells; settings: Homo sapiens, SU.86.86, BsHer2 (trastuzumab/pertuzumab)-ADCs, 5000 cells, 96 h incubation
MKN-7 cells = assay: MTT assay of BsHer2-ADCs against MKN-7 cells; settings: Homo sapiens, BsHer2 (trastuzumab/pertuzumab)-ADCs, 5000 cells, 96 h incubation
NCI-N87 cells = assay: MTT assay of BsHer2-ADCs against NCI-N87 cells; settings: Homo sapiens, BsHer2 (trastuzumab/pertuzumab)-ADCs, 5000 cells, 96 h incubation
SW1990 cells = assay: MTT assay of BsHer2-ADCs against SW1990 cells; settings: Homo sapiens, BsHer2 (trastuzumab/pertuzumab)-ADCs, 5000 cells, 96 h incubation
C4-2B cells = assay: MTT assay of B7H3-ADCs against C4-2B tumor cells; settings: 6000 cells, 96 h incubation
22RV1 cells = assay: MTT assay of B7H3-ADCs against 22RV1 tumor cells; settings: Homo sapiens, 6000 cells, 96 h incubation

IC50 (PC3-4H7 cells): 2.03 nM
IC50 (MKN-7 cells): 10.2 nM
IC50 (SW1990 cells): 0.042 nM
IC50 (C4-2B cells): 1.59 nM
IC50 (22RV1 cells): 1.85 nM
Structure (SMILES): CC(=O)O[C@H]1C(=O)[C@@]2(C)[C@H]([C@H](OC(=O)c3ccccc3)[C@]3(O)C[C@H](OC(=O)[C@H](O)[C@@H](NC(=O)c4ccccc4)c4ccccc4)C(C)=C1C3(C)C)[C@]1(OC(C)=O)CO[C@@H]1C[C@@H]2O [Paclitaxel]
IC50 (SU86.86 cells): 2.98 nM
IC50 (NCI-N87 cells): 0.76 nM
